HELM strings list units from the 5' end as sugar, base in round brackets, then linkage (d deoxyribose, r ribose, m 2'-O-methyl, p phosphodiester). Strings are as the collection lists them, not checked against the first reports. ss, as = sense and antisense strand; [fl2r] = 2'-fluoro
Conditions: siRNA
Note: test system not given here.

Substance	target mRNA knockdown [%]
RNA1{r(U)p.r(U)p.m(U)p.r(G)p.r(A)p.r(U)p.m(C)p.r(A)p.r(G)p.r(C)p.r(G)p.r(G)p.r(A)p.r(G)p.r(A)p.r(C)p.r(U)p.r(C)p.r(G)p.r(T)p.r(T)}|RNA2{r(C)p.r(G)p.r(A)p.r(G)p.r(U)p.r(C)p.r(U)p.r(C)p.r(C)p.r(G)p.r(C)p.m(U)p.r(G)p.r(A)p.r(U)p.m(C)p.r(A)p.r(A)p.r(A)p.r(T)p.r(T)}$$$RNA1{StrandType:ss}|RNA2{StrandType:as}$	89
RNA1{r(U)p.r(U)p.r(C)p.[fl2r](U)p.r(A)p.r(A)p.r(C)p.r(C)p.r(G)p.r(G)p.r(G)p.[fl2r](C)p.r(A)p.r(G)p.r(C)p.r(U)p.r(U)p.r(C)p.r(U)p.r(T)p.r(T)}|RNA2{r(A)p.r(G)p.r(A)p.r(A)p.r(G)p.r(C)p.[fl2r](U)p.r(G)p.r(C)p.r(C)p.r(C)p.r(G)p.r(G)p.r(U)p.[fl2r](U)p.r(A)p.r(G)p.r(A)p.r(A)p.r(T)p.r(T)}$$$RNA1{StrandType:ss}|RNA2{StrandType:as}$	71
RNA1{r(U)p.r(U)p.r(C)p.[fl2r](U)p.r(A)p.r(A)p.r(C)p.r(C)p.r(G)p.r(G)p.r(G)p.r(C)p.r(A)p.r(G)p.r(C)p.r(U)p.r(U)p.r(C)p.r(U)p.r(T)p.r(T)}|RNA2{r(A)p.r(G)p.r(A)p.r(A)p.r(G)p.r(C)p.r(U)p.r(G)p.r(C)p.r(C)p.r(C)p.r(G)p.r(G)p.r(U)p.[fl2r](U)p.r(A)p.r(G)p.r(A)p.r(A)p.r(T)p.r(T)}$$$RNA1{StrandType:ss}|RNA2{StrandType:as}$	72
RNA1{r(U)p.r(U)p.r(U)p.[fl2r](C)p.[fl2r](C)p.[fl2r](C)p.[fl2r](C)p.[fl2r](C)p.r(A)p.r(G)p.r(G)p.r(U)p.r(A)p.r(A)p.[fl2r](C)p.r(G)p.r(A)p.r(U)p.r(U)p.r(T)p.r(T)}|RNA2{r(A)p.r(A)p.r(U)p.[fl2r](C)p.r(G)p.r(U)p.r(U)p.[fl2r](A)p.[fl2r](C)p.r(C)p.r(U)p.r(G)p.r(G)p.r(G)p.r(G)p.r(G)p.r(A)p.r(A)p.r(A)p.r(T)p.r(T)}$$$RNA1{StrandType:ss}|RNA2{StrandType:as}$	68
RNA1{r(U)p.r(U)p.r(U)p.m(G)p.r(A)p.r(U)p.m(C)p.r(A)p.r(G)p.r(C)p.r(G)p.r(G)p.r(A)p.r(G)p.r(A)p.r(C)p.r(U)p.r(C)p.r(G)p.r(T)p.r(T)}|RNA2{r(C)p.r(G)p.r(A)p.r(G)p.r(U)p.r(C)p.r(U)p.r(C)p.r(C)p.r(G)p.r(C)p.r(U)p.r(G)p.r(A)p.r(U)p.r(C)p.r(A)p.r(A)p.r(A)p.r(T)p.r(T)}$$$RNA1{StrandType:ss}|RNA2{StrandType:as}$	82
RNA1{r(U)p.r(U)p.r(U)p.r(C)p.r(A)p.r(C)p.r(U)p.r(A)p.r(C)p.r(U)p.r(C)p.r(C)p.r(U)p.r(A)p.r(C)p.r(G)p.r(A)p.r(G)p.r(C)p.d(T)p.d(T)}|RNA2{r(G)p.r(C)p.r(U)p.r(C)p.r(G)p.r(U)p.r(A)p.r(G)p.r(G)p.r(A)p.r(G)p.r(U)p.r(A)p.r(G)p.r(U)p.r(G)p.r(A)p.r(A)p.r(A)p.d(T)p.d(T)}$$$RNA1{StrandType:ss}|RNA2{StrandType:as}$	0
RNA1{r(U)p.r(U)p.r(U)p.r(C)p.r(C)p.r(C)p.r(C)p.r(C)p.[fl2r](A)p.[fl2r](G)p.[fl2r](G)p.r(U)p.[fl2r](A)p.[fl2r](A)p.[fl2r](C)p.[fl2r](G)p.r(A)p.r(U)p.r(U)p.r(T)p.r(T)}|RNA2{r(A)p.r(A)p.r(U)p.r(C)p.r(G)p.r(U)p.r(U)p.r(A)p.r(C)p.r(C)p.r(U)p.r(G)p.r(G)p.r(G)p.r(G)p.r(G)p.r(A)p.r(A)p.r(A)p.r(T)p.r(T)}$$$RNA1{StrandType:ss}|RNA2{StrandType:as}$	78
RNA1{r(U)p.r(U)p.r(U)p.r(C)p.r(C)p.r(C)p.r(C)p.r(C)p.r(A)p.r(G)p.r(G)p.[fl2r](U)p.r(A)p.r(A)p.r(C)p.r(G)p.r(A)p.r(U)p.r(U)p.r(T)p.r(T)}|RNA2{r(A)p.r(A)p.r(U)p.r(C)p.r(G)p.r(U)p.[fl2r](U)p.r(A)p.r(C)p.r(C)p.r(U)p.r(G)p.r(G)p.r(G)p.r(G)p.r(G)p.r(A)p.r(A)p.r(A)p.r(T)p.r(T)}$$$RNA1{StrandType:ss}|RNA2{StrandType:as}$	75

From the OligoGym collection
